Measurements from ChEMBL document CHEMBL6103581, “Identification of Thieno[3,2-d]pyrimidine derivatives as potent and selective Janus Kinase 1 inhibitors” (Eur J Med Chem, 2025).
Active and inactive are the calls of the source. The calls are words filed in the database; no cut-off is given here.

Assays:
[1] = target: T1, Tyrosine-protein kinase JAK3 (Homo sapiens, UniProt P52333); assay: Inhibition of N-terminal GST-tagged human recombinant JAK3 (781 to end residues) extracted from baculovirus infected in Sf9 cells using Poly(4:1 Glu, Tyr) as substrate preincubated for 15 min followed by substrate addition and measured after 1 hr by ADP-Glo kinase assay
T1 sequence (P52333 whole entry): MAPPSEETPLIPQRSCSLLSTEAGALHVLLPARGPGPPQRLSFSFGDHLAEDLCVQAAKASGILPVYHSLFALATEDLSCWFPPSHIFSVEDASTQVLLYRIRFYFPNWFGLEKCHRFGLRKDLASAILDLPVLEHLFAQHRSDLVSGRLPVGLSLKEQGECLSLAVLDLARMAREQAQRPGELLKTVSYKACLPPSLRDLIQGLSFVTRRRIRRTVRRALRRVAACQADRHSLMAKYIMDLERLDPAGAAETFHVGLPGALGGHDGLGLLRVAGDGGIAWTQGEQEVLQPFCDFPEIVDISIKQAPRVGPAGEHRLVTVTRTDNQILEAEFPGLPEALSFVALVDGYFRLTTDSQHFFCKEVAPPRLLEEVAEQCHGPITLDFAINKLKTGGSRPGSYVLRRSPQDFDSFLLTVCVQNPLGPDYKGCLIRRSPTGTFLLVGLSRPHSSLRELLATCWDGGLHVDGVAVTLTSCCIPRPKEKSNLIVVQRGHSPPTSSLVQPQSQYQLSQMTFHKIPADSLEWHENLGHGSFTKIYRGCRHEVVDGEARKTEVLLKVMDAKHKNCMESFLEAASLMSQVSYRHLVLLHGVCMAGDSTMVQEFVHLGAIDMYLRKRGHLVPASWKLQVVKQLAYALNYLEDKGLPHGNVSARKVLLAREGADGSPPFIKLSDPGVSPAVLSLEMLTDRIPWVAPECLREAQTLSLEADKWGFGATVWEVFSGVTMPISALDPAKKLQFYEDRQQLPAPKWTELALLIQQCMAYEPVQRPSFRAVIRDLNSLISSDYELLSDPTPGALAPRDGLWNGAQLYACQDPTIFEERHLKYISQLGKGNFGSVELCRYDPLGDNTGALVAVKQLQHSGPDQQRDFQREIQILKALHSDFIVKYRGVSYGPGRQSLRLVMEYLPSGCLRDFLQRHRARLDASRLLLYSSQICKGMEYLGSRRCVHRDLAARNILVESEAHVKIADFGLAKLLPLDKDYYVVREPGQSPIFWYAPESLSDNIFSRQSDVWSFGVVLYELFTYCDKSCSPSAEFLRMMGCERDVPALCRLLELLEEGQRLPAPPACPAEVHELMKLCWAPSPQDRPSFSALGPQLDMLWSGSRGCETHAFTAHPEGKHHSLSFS

[2] = target: Tyrosine-protein kinase JAK1 (Homo sapiens, UniProt P23458); assay: Inhibition of N-terminal GST-tagged human recombinant JAK1 (438 to end residues) extracted from baculovirus infected in Sf9 cells using KKHTDDGYMPMSPGVA as substrate preincubated for 15 min followed by substrate addition and measured after 1 hr by ADP-Glo kinase assay
NCI-H2087 [3] = assay: Induction of cell cycle arrest in human NCI-H2087 cells assessed as accumulation of cells at G2/M phase at 1 to 10 uM incubated for 24 hrs by propidium iodide/RNase staining based analysis; assay type: functional; details: dose 1-10 µM
NCI-H2087 [4] = assay: Inhibition of colony formation in human NCI-H2087 cells at 10 uM incubated for 14 days by crystal violet staining based 2D colony formation assay; assay type: functional, cell-based; details: time 14.0 day
[5] = Antiproliferative activity against mouse Ba/F3-TEL-JAK1 cells assessed as cell growth inhibition incubated for 72 hrs by Cell-TiterGlo assay; assay type: functional
[6] = target: T2, Tyrosine-protein kinase JAK2 (Homo sapiens, UniProt O60674); assay: Inhibition of N-terminal GST-tagged human recombinant JAK2 (804 to end residues) extracted from baculovirus infected in Sf9 cells using IGF1Rtide as substrate preincubated for 15 min followed by substrate addition and measured after 1 hr by ADP-Glo kinase assay
BaF3 = assay: Antiproliferative activity against mouse parental BaF3 cells assessed as cell growth inhibition incubated for 72 hrs by Cell-TiterGlo assay; assay type: functional
NCI-H1975 [7] = assay: Induction of cell cycle arrest in human NCI-H1975 cells assessed as accumulation of cells at G2/M phase at 1 to 10 uM incubated for 24 hrs by propidium iodide/RNase staining based analysis; assay type: functional; details: dose 1-10 µM
NCI-H1975 [8] = assay: Synergistic antiproliferative activity against human NCI-H1975 cells assessed as cell growth inhibition measured after 48 hrs in presence of osimertinib by celltiterglo analysis; assay type: functional, cell-based
NCI-H2087 [9] = assay: Induction of apoptosis in human NCI-H2087 cells at 1 to 10 uM incubated for 24 hrs by Annexin V/Propidium iodide staining based analysis; assay type: functional, cell-based; details: dose 1-10 µM
NCI-H1975 [10] = assay: Inhibition of colony formation in human NCI-H1975 cells at 10 uM incubated for 14 days by crystal violet staining based 2D colony formation assay; assay type: functional, cell-based; details: time 14.0 day
NCI-H1975 [11] = assay: Antiproliferative activity against human NCI-H1975 cells assessed as cell growth inhibition incubated for 72 hrs by Cell-TiterGlo assay; assay type: functional
NCI-H1975 [12] = assay: Induction of apoptosis in human NCI-H1975 cells at 1 to 10 uM incubated for 24 hrs by Annexin V/Propidium iodide staining based analysis; assay type: functional, cell-based; details: dose 1-10 µM
NCI-H2087 [13] = assay: Antiproliferative activity against human NCI-H2087 cells assessed as cell growth inhibition incubated for 72 hrs by Cell-TiterGlo assay; assay type: functional
[14] = target: Non-receptor tyrosine-protein kinase TYK2 (Homo sapiens) (UniProt P29597); assay: Inhibition of human TYK2 at 0.1 uM preincubated for 20 min followed by 33P-ATP addition measured after 2 hrs by P81 filter-binding method relative to control; details: time 140.0 min
NCI-H1975 [15] = assay: Antiproliferative activity against human NCI-H1975 cells overexpressing JAK1 assessed as suppression of cell growth incubated for 72 hrs by Cell-TiterGlo assay; assay type: functional, cell-based
HCT-116 = assay: Antiproliferative activity against human HCT-116 cells overexpressing JAK1 assessed as suppression of cell growth incubated for 72 hrs by Cell-TiterGlo assay; assay type: functional, cell-based
NCI-H2087 [16] = assay: Upregulation of STAT3 phosphorylation level in human NCI-H2087 cells; assay type: functional, cell-based
[17] = target: T3, Aurora kinase C (Homo sapiens) (UniProt Q9UQB9); assay: Inhibition of human Aurora C at 0.1 uM preincubated for 20 min followed by 33P-ATP addition measured after 2 hrs by P81 filter-binding method relative to control; details: time 140.0 min
T3 sequence (whole entry): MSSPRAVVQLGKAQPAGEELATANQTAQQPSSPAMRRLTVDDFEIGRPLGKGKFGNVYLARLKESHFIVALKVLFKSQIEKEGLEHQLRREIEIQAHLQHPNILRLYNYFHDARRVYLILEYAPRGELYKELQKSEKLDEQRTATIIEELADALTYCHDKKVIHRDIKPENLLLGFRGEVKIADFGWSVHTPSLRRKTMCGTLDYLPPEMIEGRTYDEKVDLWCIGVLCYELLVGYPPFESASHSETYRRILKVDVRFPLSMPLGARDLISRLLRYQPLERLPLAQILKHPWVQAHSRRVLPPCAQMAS

NCI-H2087 [18] = assay: Inhibition of colony formation in human NCI-H2087 cells at 10 uM incubated for 14 days by crystal violet staining based 2D colony formation assay relative to control; assay type: functional; details: NCI-H2087, 336 h, time 14 day
[19] = target: Receptor-type tyrosine-protein kinase FLT3 (Homo sapiens) (UniProt P36888); assay: Inhibition of human FLT3 at 0.1 uM preincubated for 20 min followed by 33P-ATP addition measured after 2 hrs by P81 filter-binding method relative to control; details: time 140.0 min
NCI-H1975 [20] = assay: Inhibition of colony formation in human NCI-H1975 cells at 10 uM incubated for 14 days by crystal violet staining based 2D colony formation assay relative to control; assay type: functional; details: NCI-H1975, 336 h, time 14 day
NCI-H2087 [21] = assay: Antiproliferative activity against human NCI-H2087 cells overexpressing JAK1 assessed as suppression of cell growth incubated for 72 hrs by Cell-TiterGlo assay; assay type: functional, cell-based
U2OS = assay: Antiproliferative activity against human U2OS cells overexpressing JAK1 assessed as suppression of cell growth incubated for 72 hrs by Cell-TiterGlo assay; assay type: functional, cell-based
[22] = target: Signal transducer and activator of transcription 3 (Homo sapiens) (UniProt P40763); assay: Inhibition of STAT3 phosphorylation in human NCI-H2087 cells incubated for 1 hr by Western blot analysis; assay type: cell-based; details: dose 1-10 µM
[23] = target: T2, Tyrosine-protein kinase JAK2; assay: Inhibition of human JAK2 at 0.1 uM preincubated for 20 min followed by 33P-ATP addition measured after 2 hrs by P81 filter-binding method relative to control; details: time 140.0 min
[24] = target: Signal transducer and activator of transcription 3 (Homo sapiens) (UniProt P40763); assay: Inhibition of STAT3 phosphorylation in human NCI-H1975 cells incubated for 1 hr by Western blot analysis; assay type: cell-based; details: dose 1-10 µM
[25] = target: T4, Tyrosine-protein kinase JAK3 (Homo sapiens) (UniProt P52333); assay: Inhibition of human JAK3 at 0.1 uM preincubated for 20 min followed by 33P-ATP addition measured after 2 hrs by P81 filter-binding method relative to control; details: time 140.0 min
T4 sequence (whole entry): T1 sequence (P52333 whole entry)

HT-29 = assay: Antiproliferative activity against human HT-29 cells overexpressing JAK1 assessed as suppression of cell growth incubated for 72 hrs by Cell-TiterGlo assay; assay type: functional, cell-based
NCI-H1975 [26] = assay: Upregulation of STAT3 phosphorylation level in human NCI-H1975 cells; assay type: functional, cell-based
UMUC3 = assay: Antiproliferative activity against human UMUC3 cells overexpressing JAK1 assessed as suppression of cell growth incubated for 72 hrs by Cell-TiterGlo assay; assay type: functional, cell-based

T2 sequence (O60674 whole entry): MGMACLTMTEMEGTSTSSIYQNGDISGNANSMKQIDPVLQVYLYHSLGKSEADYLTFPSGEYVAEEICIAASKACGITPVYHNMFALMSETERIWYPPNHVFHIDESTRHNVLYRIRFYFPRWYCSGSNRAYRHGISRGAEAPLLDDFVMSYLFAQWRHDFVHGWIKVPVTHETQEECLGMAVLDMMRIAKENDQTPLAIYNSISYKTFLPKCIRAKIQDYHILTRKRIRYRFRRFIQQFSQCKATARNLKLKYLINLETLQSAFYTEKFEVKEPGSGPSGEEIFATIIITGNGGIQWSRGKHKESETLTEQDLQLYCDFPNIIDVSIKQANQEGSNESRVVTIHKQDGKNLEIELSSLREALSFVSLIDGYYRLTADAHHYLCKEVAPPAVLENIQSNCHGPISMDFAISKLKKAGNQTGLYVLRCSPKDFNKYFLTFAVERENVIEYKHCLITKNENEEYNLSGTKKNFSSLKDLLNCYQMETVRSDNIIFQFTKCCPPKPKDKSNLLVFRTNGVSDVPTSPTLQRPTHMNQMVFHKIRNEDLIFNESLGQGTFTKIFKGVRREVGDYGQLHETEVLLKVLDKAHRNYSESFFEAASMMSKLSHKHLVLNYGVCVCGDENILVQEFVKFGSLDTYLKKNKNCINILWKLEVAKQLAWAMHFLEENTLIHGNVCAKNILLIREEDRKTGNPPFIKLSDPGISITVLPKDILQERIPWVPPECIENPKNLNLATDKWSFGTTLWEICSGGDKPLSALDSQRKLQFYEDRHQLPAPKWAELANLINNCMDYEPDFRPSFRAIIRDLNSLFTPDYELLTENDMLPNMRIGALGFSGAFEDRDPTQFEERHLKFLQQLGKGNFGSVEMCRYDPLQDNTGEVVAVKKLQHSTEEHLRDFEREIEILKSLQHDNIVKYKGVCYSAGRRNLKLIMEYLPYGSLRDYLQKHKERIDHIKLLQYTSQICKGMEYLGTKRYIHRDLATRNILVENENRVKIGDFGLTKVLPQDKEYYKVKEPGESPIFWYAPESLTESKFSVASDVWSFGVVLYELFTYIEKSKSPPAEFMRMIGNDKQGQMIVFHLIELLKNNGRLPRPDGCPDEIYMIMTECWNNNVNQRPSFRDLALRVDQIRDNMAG
Sequence of Signal transducer and activator of transcription 3 (Homo sapiens) (P40763 whole entry): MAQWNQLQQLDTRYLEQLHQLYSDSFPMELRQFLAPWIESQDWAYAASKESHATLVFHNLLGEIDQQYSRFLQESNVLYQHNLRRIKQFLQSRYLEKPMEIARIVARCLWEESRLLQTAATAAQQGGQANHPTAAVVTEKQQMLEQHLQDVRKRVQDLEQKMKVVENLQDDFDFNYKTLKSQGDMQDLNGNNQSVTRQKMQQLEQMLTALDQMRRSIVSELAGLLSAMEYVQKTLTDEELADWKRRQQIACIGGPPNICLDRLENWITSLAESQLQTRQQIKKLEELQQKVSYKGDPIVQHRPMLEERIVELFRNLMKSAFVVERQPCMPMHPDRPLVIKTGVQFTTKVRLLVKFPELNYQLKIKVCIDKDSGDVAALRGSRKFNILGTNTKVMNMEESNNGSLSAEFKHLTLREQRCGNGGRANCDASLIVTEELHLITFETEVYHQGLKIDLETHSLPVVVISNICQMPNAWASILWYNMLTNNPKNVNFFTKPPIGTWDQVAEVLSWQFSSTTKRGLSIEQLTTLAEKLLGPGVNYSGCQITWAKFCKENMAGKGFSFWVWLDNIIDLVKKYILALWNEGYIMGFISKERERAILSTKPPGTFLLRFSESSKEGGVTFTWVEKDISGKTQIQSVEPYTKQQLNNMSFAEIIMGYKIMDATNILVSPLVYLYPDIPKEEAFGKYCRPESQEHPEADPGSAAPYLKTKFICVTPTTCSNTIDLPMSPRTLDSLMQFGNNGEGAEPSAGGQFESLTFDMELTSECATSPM
Sequence of Non-receptor tyrosine-protein kinase TYK2 (Homo sapiens) (P29597 whole entry): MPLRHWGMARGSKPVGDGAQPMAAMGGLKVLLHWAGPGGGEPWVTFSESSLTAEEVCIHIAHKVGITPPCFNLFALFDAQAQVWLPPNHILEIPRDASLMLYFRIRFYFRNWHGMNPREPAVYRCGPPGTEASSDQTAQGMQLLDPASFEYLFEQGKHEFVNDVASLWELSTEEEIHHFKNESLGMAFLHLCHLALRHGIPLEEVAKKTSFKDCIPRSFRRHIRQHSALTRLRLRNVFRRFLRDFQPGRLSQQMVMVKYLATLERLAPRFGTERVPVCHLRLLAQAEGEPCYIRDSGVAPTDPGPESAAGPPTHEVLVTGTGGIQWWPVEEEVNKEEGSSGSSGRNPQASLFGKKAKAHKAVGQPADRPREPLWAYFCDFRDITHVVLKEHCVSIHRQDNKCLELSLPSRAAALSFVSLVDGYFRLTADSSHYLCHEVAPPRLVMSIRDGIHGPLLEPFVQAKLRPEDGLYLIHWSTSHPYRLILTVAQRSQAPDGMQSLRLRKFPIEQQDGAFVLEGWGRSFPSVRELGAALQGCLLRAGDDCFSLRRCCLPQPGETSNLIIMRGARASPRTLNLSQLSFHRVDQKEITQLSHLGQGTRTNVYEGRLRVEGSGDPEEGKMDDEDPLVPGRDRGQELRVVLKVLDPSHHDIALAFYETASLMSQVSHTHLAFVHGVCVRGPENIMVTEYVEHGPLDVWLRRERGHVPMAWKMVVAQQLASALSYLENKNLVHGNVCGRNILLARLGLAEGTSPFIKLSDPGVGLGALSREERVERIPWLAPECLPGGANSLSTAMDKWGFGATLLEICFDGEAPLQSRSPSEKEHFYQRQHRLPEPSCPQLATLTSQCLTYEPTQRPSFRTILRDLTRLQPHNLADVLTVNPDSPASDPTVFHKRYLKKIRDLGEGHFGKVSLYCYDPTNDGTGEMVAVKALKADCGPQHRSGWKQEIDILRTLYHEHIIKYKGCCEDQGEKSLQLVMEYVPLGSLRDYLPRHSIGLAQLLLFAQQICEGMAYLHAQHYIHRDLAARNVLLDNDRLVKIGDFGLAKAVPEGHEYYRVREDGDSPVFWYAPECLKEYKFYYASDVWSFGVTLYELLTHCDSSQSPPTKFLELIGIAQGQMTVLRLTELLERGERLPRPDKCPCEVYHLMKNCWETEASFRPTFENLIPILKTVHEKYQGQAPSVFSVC
Sequence of Tyrosine-protein kinase JAK1 (P23458 whole entry): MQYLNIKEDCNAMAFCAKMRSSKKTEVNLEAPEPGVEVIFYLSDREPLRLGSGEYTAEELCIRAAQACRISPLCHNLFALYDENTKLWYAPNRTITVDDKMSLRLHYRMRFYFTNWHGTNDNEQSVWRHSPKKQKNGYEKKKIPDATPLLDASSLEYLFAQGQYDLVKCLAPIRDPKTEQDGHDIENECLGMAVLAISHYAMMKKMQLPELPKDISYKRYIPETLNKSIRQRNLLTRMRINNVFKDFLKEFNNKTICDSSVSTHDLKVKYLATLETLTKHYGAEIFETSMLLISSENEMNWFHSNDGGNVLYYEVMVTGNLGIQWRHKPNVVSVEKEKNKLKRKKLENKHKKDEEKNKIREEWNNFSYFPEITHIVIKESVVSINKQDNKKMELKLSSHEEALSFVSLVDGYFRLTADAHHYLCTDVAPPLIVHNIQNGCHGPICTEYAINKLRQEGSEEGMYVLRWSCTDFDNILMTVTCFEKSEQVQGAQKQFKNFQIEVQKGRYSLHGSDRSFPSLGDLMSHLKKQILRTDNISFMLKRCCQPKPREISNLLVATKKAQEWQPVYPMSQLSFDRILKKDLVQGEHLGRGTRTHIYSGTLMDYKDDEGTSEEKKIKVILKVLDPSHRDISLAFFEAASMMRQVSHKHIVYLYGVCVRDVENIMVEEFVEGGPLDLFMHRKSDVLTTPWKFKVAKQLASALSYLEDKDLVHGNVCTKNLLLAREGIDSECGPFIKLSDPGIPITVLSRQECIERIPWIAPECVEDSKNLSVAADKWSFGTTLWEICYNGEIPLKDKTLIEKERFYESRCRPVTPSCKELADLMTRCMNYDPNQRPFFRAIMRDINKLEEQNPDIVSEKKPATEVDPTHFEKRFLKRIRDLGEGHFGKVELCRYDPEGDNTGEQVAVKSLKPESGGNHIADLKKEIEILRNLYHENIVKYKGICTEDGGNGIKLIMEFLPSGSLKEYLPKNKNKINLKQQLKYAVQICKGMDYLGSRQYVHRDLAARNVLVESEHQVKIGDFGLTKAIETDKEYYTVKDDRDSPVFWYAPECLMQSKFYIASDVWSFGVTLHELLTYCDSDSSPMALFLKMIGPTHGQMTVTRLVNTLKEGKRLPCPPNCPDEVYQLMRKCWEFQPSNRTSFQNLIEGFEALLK

COc1nn(C)cc1Nc1nccc(-c2c[nH]c3c(NC(=O)[C@@H](C)N4CCN(C)CC4)cccc23)n1 [GOLIDOCITINIB]
IC50 [1]: 1920 nM
IC50 [2]: 82 nM
Activity (NCI-H2087 [3]): Active
inhibition (NCI-H2087 [4]): Active
GI50 [5]: 514 nM
IC50 [6]: 613 nM
GI50 (BaF3): 3670 nM
Activity (NCI-H1975 [7]): Active
Activity (NCI-H1975 [8]): Active
Activity (NCI-H2087 [9]): Active
inhibition (NCI-H1975 [10]): Active
GI50 (NCI-H1975 [11]): 36.7 µM
Activity (NCI-H1975 [12]): Active
GI50 (NCI-H2087 [13]): 40.2 µM

COc1nn(C)cc1Nc1ncc2scc(-c3cccc(NC(=O)[C@@H](C)N4CCN(C)CC4)c3)c2n1
inhibition [14]: 18.1%
IC50 [1]: 4030 nM
Activity (NCI-H2087 [3]): Active
Activity (NCI-H1975 [15]): Active
GI50 [5]: 447 nM
Activity (HCT-116): Active
IC50 [6]: 3580 nM
Activity (NCI-H2087 [16]): Active
inhibition [17]: 83.7%
inhibition at 10 µM (NCI-H2087 [18]): 100%
inhibition [19]: 82.5%
inhibition at 10 µM (NCI-H1975 [20]): 100%
Activity (NCI-H2087 [21]): Active
GI50 (BaF3): 1450 nM
Activity (NCI-H1975 [7]): Active
Activity (NCI-H1975 [8]): Active
Activity (NCI-H2087 [9]): Active
GI50 (NCI-H1975 [11]): 2.46 µM
Activity (U2OS): Active
inhibition [22]: Dose-dependent-effect
inhibition [23]: 61.8%
inhibition [24]: Dose-dependent-effect
inhibition [25]: 15.5%
Activity (HT-29): Active
Activity (NCI-H1975 [12]): Active
GI50 (NCI-H2087 [13]): 6.81 µM
Activity (NCI-H1975 [26]): Active
Activity (UMUC3): Active
